Our source for the Ki, EC50 and IC50 values is ChEMBL document CHEMBL1140154, “1H-cyclopentapyrimidine-2,4(1H,3H)-dione-related ionotropic glutamate receptors ligands. structure-activity relationships and identification of potent and Selective iGluR5 modulators” (J Med Chem, 2008).

Where only a bound is given, the exact number is not on record here.

For test [1], the target named is Glutamate receptor ionotropic, kainate 1 (Rattus norvegicus, UniProt P22756). Put plainly: biochemical.
Test [2] deals with T1, Glutamate receptor 1 (Rattus norvegicus, UniProt P19490). Put plainly: biochemical.
T1 sequence (P19490 whole entry): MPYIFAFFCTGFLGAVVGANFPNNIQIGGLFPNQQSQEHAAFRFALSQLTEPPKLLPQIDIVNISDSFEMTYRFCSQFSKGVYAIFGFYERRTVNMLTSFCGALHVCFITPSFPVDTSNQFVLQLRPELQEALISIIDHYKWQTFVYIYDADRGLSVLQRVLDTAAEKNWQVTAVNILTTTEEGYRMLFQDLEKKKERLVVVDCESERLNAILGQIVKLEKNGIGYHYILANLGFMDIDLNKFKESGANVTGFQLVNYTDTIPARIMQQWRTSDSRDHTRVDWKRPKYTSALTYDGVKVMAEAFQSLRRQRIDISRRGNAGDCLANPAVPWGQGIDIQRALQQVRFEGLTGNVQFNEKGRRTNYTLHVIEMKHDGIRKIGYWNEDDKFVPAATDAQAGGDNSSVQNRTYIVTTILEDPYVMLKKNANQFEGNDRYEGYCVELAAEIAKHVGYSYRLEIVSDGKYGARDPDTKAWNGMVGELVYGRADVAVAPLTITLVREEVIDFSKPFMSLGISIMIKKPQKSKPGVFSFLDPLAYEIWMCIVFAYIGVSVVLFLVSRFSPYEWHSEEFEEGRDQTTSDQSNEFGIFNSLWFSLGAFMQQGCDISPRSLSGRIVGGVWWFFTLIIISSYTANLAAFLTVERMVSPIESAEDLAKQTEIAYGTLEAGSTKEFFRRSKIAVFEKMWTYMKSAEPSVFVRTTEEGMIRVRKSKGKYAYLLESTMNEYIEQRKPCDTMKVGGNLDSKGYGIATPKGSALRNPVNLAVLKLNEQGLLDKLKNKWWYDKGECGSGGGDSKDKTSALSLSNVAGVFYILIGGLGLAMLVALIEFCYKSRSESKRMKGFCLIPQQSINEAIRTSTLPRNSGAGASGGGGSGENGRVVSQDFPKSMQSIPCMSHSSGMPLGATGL
Test [3] deals with T2, Glutamate receptor 3 (Rattus norvegicus, UniProt P19492). Description: biochemical.
T2 sequence (P19492 whole entry): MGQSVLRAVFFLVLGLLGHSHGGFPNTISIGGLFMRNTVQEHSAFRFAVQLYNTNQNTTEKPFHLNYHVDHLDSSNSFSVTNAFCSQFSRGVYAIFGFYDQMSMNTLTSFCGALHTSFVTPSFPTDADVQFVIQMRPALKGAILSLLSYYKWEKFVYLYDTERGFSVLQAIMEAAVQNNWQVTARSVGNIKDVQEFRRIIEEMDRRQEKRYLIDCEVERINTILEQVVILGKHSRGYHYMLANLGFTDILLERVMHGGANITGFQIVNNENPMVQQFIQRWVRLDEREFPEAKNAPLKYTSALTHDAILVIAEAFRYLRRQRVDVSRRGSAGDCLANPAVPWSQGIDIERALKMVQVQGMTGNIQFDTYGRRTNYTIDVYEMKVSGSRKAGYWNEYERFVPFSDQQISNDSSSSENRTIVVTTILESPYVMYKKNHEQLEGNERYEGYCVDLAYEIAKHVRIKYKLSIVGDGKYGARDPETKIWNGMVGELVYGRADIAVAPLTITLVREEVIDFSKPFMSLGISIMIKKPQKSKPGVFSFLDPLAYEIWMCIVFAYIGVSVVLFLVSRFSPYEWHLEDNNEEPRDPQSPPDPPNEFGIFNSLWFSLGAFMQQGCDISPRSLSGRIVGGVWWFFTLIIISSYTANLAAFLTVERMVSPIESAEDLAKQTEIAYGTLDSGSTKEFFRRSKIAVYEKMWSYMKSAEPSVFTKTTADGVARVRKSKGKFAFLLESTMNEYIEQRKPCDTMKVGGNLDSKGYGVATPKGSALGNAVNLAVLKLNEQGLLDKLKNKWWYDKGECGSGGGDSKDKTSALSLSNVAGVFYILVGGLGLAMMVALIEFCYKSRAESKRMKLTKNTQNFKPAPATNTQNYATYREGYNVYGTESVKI
The target of test [4] is T3, Glutamate receptor 4 (Rattus norvegicus, UniProt P19493). Description: biochemical.
T3 sequence (P19493 whole entry): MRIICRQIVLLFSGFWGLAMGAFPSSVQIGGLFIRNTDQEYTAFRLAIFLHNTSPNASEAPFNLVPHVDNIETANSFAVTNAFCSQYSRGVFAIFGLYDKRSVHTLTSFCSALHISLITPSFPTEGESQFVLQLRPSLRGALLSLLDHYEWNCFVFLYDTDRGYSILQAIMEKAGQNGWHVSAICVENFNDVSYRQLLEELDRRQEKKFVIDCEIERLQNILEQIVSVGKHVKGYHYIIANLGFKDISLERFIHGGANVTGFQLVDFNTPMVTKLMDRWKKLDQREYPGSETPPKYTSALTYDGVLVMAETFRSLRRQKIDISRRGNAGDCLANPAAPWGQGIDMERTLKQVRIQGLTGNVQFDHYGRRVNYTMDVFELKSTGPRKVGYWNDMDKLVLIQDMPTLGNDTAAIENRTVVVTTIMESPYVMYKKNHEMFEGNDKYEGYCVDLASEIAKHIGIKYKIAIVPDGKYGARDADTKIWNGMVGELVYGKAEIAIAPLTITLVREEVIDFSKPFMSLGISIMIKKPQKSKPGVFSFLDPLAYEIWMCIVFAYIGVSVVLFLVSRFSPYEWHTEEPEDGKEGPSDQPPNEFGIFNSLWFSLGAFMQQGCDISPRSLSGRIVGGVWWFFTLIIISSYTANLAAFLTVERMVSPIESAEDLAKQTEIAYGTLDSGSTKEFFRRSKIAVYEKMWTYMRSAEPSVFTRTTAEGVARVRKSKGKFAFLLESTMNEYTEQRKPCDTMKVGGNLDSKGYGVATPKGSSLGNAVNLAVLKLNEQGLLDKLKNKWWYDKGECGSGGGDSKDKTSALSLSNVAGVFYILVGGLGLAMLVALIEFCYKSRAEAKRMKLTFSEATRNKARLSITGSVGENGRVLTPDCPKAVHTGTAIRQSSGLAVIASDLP
In test [5] the target is T4, Glutamate receptor 2 (Rattus norvegicus, UniProt P19491). Put plainly: biochemical.
T4 sequence (P19491 whole entry): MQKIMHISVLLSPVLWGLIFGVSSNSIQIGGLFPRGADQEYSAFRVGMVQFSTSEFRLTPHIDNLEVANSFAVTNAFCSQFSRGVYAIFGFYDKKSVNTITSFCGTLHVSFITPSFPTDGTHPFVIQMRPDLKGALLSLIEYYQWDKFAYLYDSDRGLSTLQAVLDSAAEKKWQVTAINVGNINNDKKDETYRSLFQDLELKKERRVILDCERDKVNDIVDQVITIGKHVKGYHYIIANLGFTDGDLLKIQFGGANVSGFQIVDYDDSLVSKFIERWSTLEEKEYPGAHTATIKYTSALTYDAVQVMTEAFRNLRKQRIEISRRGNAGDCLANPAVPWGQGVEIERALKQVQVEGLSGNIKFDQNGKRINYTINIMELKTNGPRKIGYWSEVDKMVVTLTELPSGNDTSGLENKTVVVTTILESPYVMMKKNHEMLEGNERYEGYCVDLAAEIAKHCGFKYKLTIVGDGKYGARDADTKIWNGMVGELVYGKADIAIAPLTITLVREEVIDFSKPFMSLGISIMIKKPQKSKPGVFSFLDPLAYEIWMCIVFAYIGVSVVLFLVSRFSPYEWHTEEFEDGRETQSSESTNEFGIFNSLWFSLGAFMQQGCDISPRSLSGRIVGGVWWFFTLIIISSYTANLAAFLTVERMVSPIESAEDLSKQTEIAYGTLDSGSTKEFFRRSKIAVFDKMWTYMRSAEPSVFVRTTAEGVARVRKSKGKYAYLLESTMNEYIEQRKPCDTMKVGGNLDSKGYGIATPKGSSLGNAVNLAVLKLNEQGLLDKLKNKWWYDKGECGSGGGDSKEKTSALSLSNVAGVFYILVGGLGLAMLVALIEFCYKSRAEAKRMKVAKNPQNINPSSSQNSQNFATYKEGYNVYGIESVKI
Test [6] addresses Glutamate receptor ionotropic, kainate 2 (Rattus norvegicus, UniProt P42260). Description: Displacement of [3H]kainic acid from rat recombinant iGluR6(V,C,R) receptor expressed in Sf9 cells. For orientation: Loss of bound radioactivity is the signal in a displacement assay; it reports binding, not function.
The target of test [7] is T1, Glutamate receptor 1. Description: Agonist activity at cyclothiazide-desensitized rat recombinant flop iGluR1 expressed in Xenopus laevis oocytes by two electrode voltage-clamp electrophysiology method. The test is classed as functional, cell-based, Oocyte.
Test [8] deals with T2, Glutamate receptor 3. Put plainly: Agonist activity at cyclothiazide-desensitized rat recombinant flip iGluR3 expressed in Xenopus laevis oocytes by two electrode voltage-clamp electrophysiology method. The test is classed as functional, cell-based, Oocyte. (In general: Two-electrode voltage clamp is typically applied to oocytes expressing channels or transporters.)
Test [9] addresses Glutamate receptor ionotropic, kainate 1 (Homo sapiens, UniProt P39086). Description: Antagonist activity at human iGluR5(Q)1b expressed in CHO-K1 cells by whole cell patch-clamp method. The test is classed as functional, cell-based.
Test [10] deals with T5, Glutamate receptor 1 (Homo sapiens, UniProt P42261). Put plainly: Agonist activity at cyclothiazide-desensitized human flip iGluR1 expressed in CHO-K1 cells by whole cell patch-clamp method. The class given is functional, cell-based. A general note: Patch clamp records ionic current or voltage across a cell membrane.
Test [11] deals with T3, Glutamate receptor 4. Description: Agonist activity at cyclothiazide-desensitized rat recombinant flip iGluR4 expressed in Xenopus laevis oocytes by two electrode voltage-clamp electrophysiology method. The test is classed as functional, cell-based, Oocyte.
Test [12] addresses T1, Glutamate receptor 1. Description: Agonist activity at cyclothiazide-desensitized rat recombinant flip iGluR1 expressed in Xenopus laevis oocytes by two electrode voltage-clamp electrophysiology method. The test is classed as functional, cell-based, Oocyte.
In test [13] the target is T4, Glutamate receptor 2.
Test [14] concerns the target T5, Glutamate receptor 1. Description: Antagonist activity at human flip iGluR1 expressed in CHO-K1 cells by whole cell patch-clamp method. The test is classed as functional, cell-based.

Sequence of Glutamate receptor ionotropic, kainate 1 (Rattus norvegicus, UniProt P22756) (P22756 whole entry): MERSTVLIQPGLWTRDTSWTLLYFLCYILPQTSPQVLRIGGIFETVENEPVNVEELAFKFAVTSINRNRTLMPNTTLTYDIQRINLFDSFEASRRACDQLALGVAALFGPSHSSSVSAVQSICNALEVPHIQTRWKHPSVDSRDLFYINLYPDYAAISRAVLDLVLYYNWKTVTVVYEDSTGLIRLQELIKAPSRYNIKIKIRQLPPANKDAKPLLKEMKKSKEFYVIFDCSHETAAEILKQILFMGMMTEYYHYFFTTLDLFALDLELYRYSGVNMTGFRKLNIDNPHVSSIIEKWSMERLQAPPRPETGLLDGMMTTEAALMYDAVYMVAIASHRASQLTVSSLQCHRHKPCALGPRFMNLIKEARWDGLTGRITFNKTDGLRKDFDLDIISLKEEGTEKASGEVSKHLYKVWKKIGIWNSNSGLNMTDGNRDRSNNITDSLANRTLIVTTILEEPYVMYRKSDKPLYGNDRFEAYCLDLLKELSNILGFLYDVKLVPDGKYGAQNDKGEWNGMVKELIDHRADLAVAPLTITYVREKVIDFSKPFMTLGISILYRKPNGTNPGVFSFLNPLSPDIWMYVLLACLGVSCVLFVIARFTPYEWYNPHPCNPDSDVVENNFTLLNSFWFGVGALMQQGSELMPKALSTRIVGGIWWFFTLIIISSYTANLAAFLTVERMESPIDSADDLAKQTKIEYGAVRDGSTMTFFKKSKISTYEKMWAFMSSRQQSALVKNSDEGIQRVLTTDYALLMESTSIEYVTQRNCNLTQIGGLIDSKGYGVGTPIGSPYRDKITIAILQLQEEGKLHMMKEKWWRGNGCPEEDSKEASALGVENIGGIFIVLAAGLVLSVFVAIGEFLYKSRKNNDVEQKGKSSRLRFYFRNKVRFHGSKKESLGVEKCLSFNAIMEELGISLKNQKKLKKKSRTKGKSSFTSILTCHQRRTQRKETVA

For orientation: Ki means the equilibrium dissociation constant of an inhibitor or competing ligand from its target. For `CC1(C)Cc2c(n(C[C@H](N)C(=O)O)c(=O)[nH]c2=O)C1`, the Ki in [1] was 0.976 µM; at Glutamate receptor 1 [2] it was 0.102 µM; on Glutamate receptor 3 [3] it was 1.51 µM; at Glutamate receptor 4 [4] it was 1.59 µM; on Glutamate receptor 2 [5], 0.126 µM; in test [6] it was over 1000 µM.
In the case of `N[C@@H](CCn1c2c(c(=O)n(CC[C@H](N)C(=O)O)c1=O)CCC2)C(=O)O`, the Ki in [1] was over 1000 µM; on Glutamate receptor 1 [2], over 100 µM; at Glutamate receptor 3 [3], over 100 µM; on Glutamate receptor 4 [4], over 100 µM; at Glutamate receptor 2 [5], over 100 µM; in test [6] it was over 100 µM.
As for `N[C@@H](Cn1c(=O)[nH]c(=O)c2ccccc21)C(=O)O`, the Ki in test [1] was 0.49 µM; on Glutamate receptor 1 [2] it was 2.39 µM; on Glutamate receptor 3 [3] it was 6.91 µM; at Glutamate receptor 4 [4], 15.7 µM; on Glutamate receptor 2 [5], 3.39 µM; in [6] it was over 1000 µM.
By EC50 is commonly meant the concentration at which the effect is half-maximal. Turning to `N[C@@H](Cn1cc(I)c(=O)[nH]c1=O)C(=O)O`, the EC50 at Glutamate receptor 1 [7] came out at 33.6 µM. The Ki is 0.0024 µM in test [1]; 0.083 µM on Glutamate receptor 1 [2]; 0.976 µM at Glutamate receptor 3 [3]; 0.738 µM at Glutamate receptor 4 [4]; over 100 µM in test [6].
Turning to `Cc1onc(O)c1CC(N)C(=O)O` (racemic) [(R,S)-AMPA], the inhibition constant (Ki) in test [6] was over 1000 µM.
For the compound `N[C@@H](Cn1c(=O)[nH]c(=O)c2cocc21)C(=O)O`, the Ki in test [1] is 2.98 µM; on Glutamate receptor 1 [2], 35.2 µM; at Glutamate receptor 3 [3] it was over 100 µM; on Glutamate receptor 4 [4], over 100 µM; in [6], over 1000 µM.
As to `N[C@@H](Cn1cc(Br)c(=O)[nH]c1=O)C(=O)O`, the concentration giving a half-maximal response (EC50) on Glutamate receptor 1 [7] was determined as 2.8 µM.
Still for that read-out and setting: the same measure for `N[C@@H](Cn1ccc(=O)[nH]c1=O)C(=O)O` [(S)-WILLARDIINE]: 11.5 µM.
In general, IC50 refers to the point on the concentration scale where inhibition reaches its midpoint. Read a low IC50 as higher potency. Consider `N[C@@H](Cn1c2c(c(=O)[nH]c1=O)CSC2)C(=O)O`, for which the IC50 was determined as 0.0052 µM in test [1] and 0.0038 µM in test [9]. In addition, the EC50 on Glutamate receptor 3 [8] was 33.9 µM; at Glutamate receptor 1 [10], 18.5 µM; at Glutamate receptor 4 [11], 24.2 µM; on Glutamate receptor 1 [12], 11.8 µM. Further, the Ki is 0.058 µM on Glutamate receptor 1 [2], 0.311 µM at Glutamate receptor 3 [3], 0.288 µM at Glutamate receptor 4 [4] and over 1000 µM in test [6].
As to `NC(Cn1ccc(=O)[nH]c1=O)C(=O)O` (stereo not given), the inhibition constant Ki was over 100 µM in test [1], 0.41 µM at Glutamate receptor 1 [2], 14.2 µM at Glutamate receptor 4 [4] and over 1000 µM in [6].
Consider `N[C@H](Cn1c2c(c(=O)[nH]c1=O)CCC2)C(=O)O`, for which the figures for the Ki on Glutamate receptor 1 [2] and at Glutamate receptor 4 [4] were 10.4 µM and over 100 µM, respectively.
For the compound `N[C@@H](Cn1c(=O)[nH]c(=O)c2sccc21)C(=O)O`, the 50% effective concentration (EC50) turned out to be 11.8 µM on Glutamate receptor 2 [13]; 120 µM on Glutamate receptor 3 [8]; 4.1 µM at Glutamate receptor 1 [10]; 90 µM at Glutamate receptor 4 [11]; 7.2 µM on Glutamate receptor 1 [12]. Besides, at Glutamate receptor 1 [14], the midpoint of inhibition, the IC50, lay at 0.374 µM. For the same compound, the inhibition constant Ki was 0.05 µM at Glutamate receptor 1 [2]; 0.936 µM on Glutamate receptor 3 [3]; 0.804 µM at Glutamate receptor 4 [4]; 0.112 µM on Glutamate receptor 2 [5]; over 1000 µM in test [6].
For the compound `N[C@@H](Cn1cc(F)c(=O)[nH]c1=O)C(=O)O`, the Ki in test [1] is 1.38 µM; at Glutamate receptor 1 [2], 0.0029 µM; on Glutamate receptor 3 [3] it was 0.07 µM; at Glutamate receptor 4 [4], 0.123 µM; in test [6] it was over 100 µM. The concentration for a half-maximal effect (EC50) at Glutamate receptor 3 [8] turned out to be 20.9 µM; at Glutamate receptor 4 [11], 11.9 µM; at Glutamate receptor 1 [12] it was 0.38 µM.
With `N[C@@H](CCn1c2c(c(=O)[nH]c1=O)CCC2)C(=O)O`, the Ki in test [1] is over 1000 µM; at Glutamate receptor 1 [2] it was over 100 µM; at Glutamate receptor 3 [3] it was over 100 µM; at Glutamate receptor 4 [4], over 100 µM; at Glutamate receptor 2 [5] it was over 100 µM; in test [6] it was over 1000 µM.
For `N[C@@H](Cn1c2c(c(=O)[nH]c1=O)CCC2)C(=O)O`, the 50% effective concentration (EC50) on Glutamate receptor 1 [7] was found to be 24.9 µM. Moreover, the inhibition constant Ki in test [1] was 0.044 µM; on Glutamate receptor 1 [2], 0.109 µM; at Glutamate receptor 3 [3], 1.89 µM; at Glutamate receptor 4 [4], 2.09 µM; in test [6], over 1000 µM.
As for `N[C@@H](Cn1cc(Cl)c(=O)[nH]c1=O)C(=O)O`, the Ki is 0.047 µM in [1]; 0.037 µM at Glutamate receptor 1 [2]; 0.451 µM on Glutamate receptor 3 [3]; 0.561 µM on Glutamate receptor 4 [4]; over 100 µM in test [6].
For `C=C(C)[C@H]1CN[C@H](C(=O)O)[C@H]1CC(=O)O` [KAINIC ACID], at Glutamate receptor 4 [4], the affinity corresponds to a Ki of 3.57 µM.
Take `NC(Cn1cc(Br)c(=O)[nH]c1=O)C(=O)O` (racemic): the Ki in [1] is 0.0148 µM; at Glutamate receptor 1 [2] it was 0.035 µM; on Glutamate receptor 3 [3], 0.434 µM; on Glutamate receptor 4 [4] it was 0.656 µM; in test [6], over 100 µM.
